What was measured:
PBMC [1] = experiment: Inhibition of lipopolysaccharide stimulated TNF-alpha release in human PBMC at 100 uM; type: functional
Homo sapiens = species on record: Homo sapiens; experiment: Inhibition of lipopolysaccharide stimulated TNF-alpha release in human whole blood; type: functional
[2] = target: T1, Phosphodiesterase 4 (Homo sapiens) (UniProt P27815+Q08499+Q07343+Q08493); experiment: Inhibition of Phosphodiesterase 4 from U937 cells at 100 uM; type: cell-based; conditions: U-937
PBMC [3] = experiment: Inhibition of lipopolysaccharide stimulated TNF-alpha release in human PBMC; type: functional, cell-based
[4] = target: T1, Phosphodiesterase 4 (Homo sapiens); experiment: Inhibition of PDE4 from U937 cells at 100 uM; type: cell-based; conditions: U-937

| Compound | IC50 (Homo sapiens) [µM] | inhibition [2] [%] | inhibition [4] [%] | inhibition at 100 µM (PBMC [1]) [%] | IC50 (PBMC [3]) [µM] |
| --- | --- | --- | --- | --- | --- |
| Nc1ccc2c(c1)C(=O)N(C1CCC(=O)NC1=O)C2 (stereo unspecified) |  |  |  | 12 |  |
| Nc1cccc2c1CN(C1CCC(=O)NC1=O)C2=O (stereo unspecified) [LENALIDOMIDE] | 0.48 | < 50 |  | 74 |  |
| Nc1cccc2c1C(=O)N(C1CCC(=O)NC1=O)C2 (stereo unspecified) |  |  |  | 18 |  |
| Nc1ccc2c(c1)C(=O)N(C1CCC(=O)NC1=O)C2=O (stereo unspecified) |  |  |  | 55 |  |
| Nc1ccc2c(c1)CN(C1CCC(=O)NC1=O)C2=O (stereo unspecified) |  |  |  | 15 |  |

More lines, main results first:

| IC50 (Homo sapiens) [µM] | inhibition [2] [%] | inhibition [4] [%] | Compound | inhibition at 100 µM (PBMC [1]) [%] | IC50 (PBMC [3]) [µM] |
| --- | --- | --- | --- | --- | --- |
| 0.014 |  |  | Nc1cccc2c1C(=O)N([C@H]1CCC(=O)NC1=O)C2=O | 99 | 0.0039 |
| 0.216 |  | < 50 | CC1(N2C(=O)c3cccc(N)c3C2=O)CCC(=O)NC1=O (stereo unspecified) | 98 | 0.044 |
| 0.025 | < 50 |  | Nc1cccc2c1C(=O)N(C1CCC(=O)NC1=O)C2=O (stereo unspecified) [POMALIDOMIDE] | 95 | 0.013 |
| 0.073 |  |  | Nc1cccc2c1C(=O)N([C@@H]1CCC(=O)NC1=O)C2=O | 85 | 0.093 |

From ChEMBL document CHEMBL1131744, “Amino-substituted thalidomide analogs: potent inhibitors of TNF-alpha production” (Bioorg Med Chem Lett, 1999)
